For one experiment, the system named is MG-63. In words: Cytotoxicity against human MG63 cells assessed as fraction of viable cells after 72 hrs relative to control. It counts as functional.
The nature of experiment [1]: Cytotoxicity against human G-292 Clone A141B1 cells assessed as fraction of viable cells after 72 hrs relative to control. The class given is functional.
For the next experiment, the system named is IMR-90. Kind of experiment: Cytotoxicity against human IMR90 cells assessed as fraction of viable cells after 72 hrs relative to control. It counts as functional.
In the next experiment the test system is SNU1. In words: Cytotoxicity against human SNU1 cells assessed as fraction of viable cells after 72 hrs relative to control. It counts as functional.
Experiment [2] can be described thus: Cytotoxicity against human Hs 707(A).T cells assessed as fraction of viable cells after 72 hrs relative to control. It counts as functional.
The next experiment deals with SNU-5. In words: Cytotoxicity against human SNU5 cells assessed as fraction of viable cells after 72 hrs relative to control. It counts as functional.
For experiment [3], the target named is ALK tyrosine kinase receptor (Homo sapiens, UniProt Q9UM73).
Description: Inhibition of ALK by cellular assay
Experiment [4] has as its target Mast/stem cell growth factor receptor Kit (Homo sapiens, UniProt P10721).
Description: Inhibition of c-Kit by cellular assay
The target in experiment [5] is Tyrosine-protein kinase ZAP-70 (Homo sapiens, UniProt P43403). In words: Inhibition of ZAP70 by cellular assay.
Experiment [6] addresses Vascular endothelial growth factor receptor 1 (Homo sapiens, UniProt P17948).
Description: Inhibition of Flt1 by cellular assay
The target in experiment [7] is Fibroblast growth factor receptor 3 (Homo sapiens, UniProt P22607).
The target in experiment [8] is Fibroblast growth factor receptor 1 (Homo sapiens, UniProt P11362).
Description: Inhibition of FGFR1 by cellular assay
Experiment [9] deals with Platelet-derived growth factor receptor alpha (Homo sapiens, UniProt P16234).
Description: Inhibition of PDGFRalpha by cellular assay
The target in experiment [10] is High affinity nerve growth factor receptor (Homo sapiens, UniProt P04629).
Experiment [11] concerns the target Receptor-type tyrosine-protein kinase FLT3 (Homo sapiens, UniProt P36888).
Description: Inhibition of FLT3 by cellular assay
Experiment [12] concerns the target T1, Vascular endothelial growth factor receptor 2 (Homo sapiens, UniProt P35968).
Description: Inhibition of KDR by cellular assay
The next experiment addresses Angiopoietin-1 receptor (Homo sapiens, UniProt Q02763).
The next experiment has as its target Insulin receptor (Homo sapiens, UniProt P06213).
For another experiment, the target named is Ephrin type-A receptor 3 (Homo sapiens, UniProt P29320). Kind of experiment: Inhibition of EphA3 by cellular assay.
Experiment [13] deals with Proto-oncogene tyrosine-protein kinase Src (Homo sapiens, UniProt P12931). Kind of experiment: Inhibition of Src by cellular assay. The class given is functional.
The next experiment deals with Ephrin type-B receptor 4 (Homo sapiens, UniProt P54760). Kind of experiment: Inhibition of EphB4 by cellular assay.
In experiment [14] the target is Macrophage-stimulating protein receptor (Homo sapiens, UniProt Q04912).
Experiment [15] concerns the target Tyrosine-protein kinase Lck (Homo sapiens, UniProt P06239).
Description: Inhibition of Lck by cellular assay
For experiment [16], the target named is Hepatocyte growth factor receptor (Homo sapiens, UniProt P08581). Kind of experiment: Inhibition of Met by cellular assay.
In experiment [17] the target is Platelet-derived growth factor receptor beta (Homo sapiens, UniProt P09619).
Description: Inhibition of PDGFRbeta by cellular assay
The target in experiment [18] is Proto-oncogene tyrosine-protein kinase receptor Ret (Homo sapiens, UniProt P07949).
Description: Inhibition of Ret by cellular assay
Experiment [19] has as its target Non-receptor tyrosine-protein kinase TYK2 (Homo sapiens, UniProt P29597). In words: Inhibition of Tyk2 by cellular assay.
Experiment [20] can be described thus: Inhibition of Mek.
The nature of experiment [21]: Inhibition of PDGF.
Experiment [22] addresses T1, Vascular endothelial growth factor receptor 2. This is another data set of the same source.
Description: Inhibition of VEGFR2 by cellular assay

Structures are written as SMILES. pEC50, pIC50: −log10 of the molar value.

T1 sequence (P35968 whole entry): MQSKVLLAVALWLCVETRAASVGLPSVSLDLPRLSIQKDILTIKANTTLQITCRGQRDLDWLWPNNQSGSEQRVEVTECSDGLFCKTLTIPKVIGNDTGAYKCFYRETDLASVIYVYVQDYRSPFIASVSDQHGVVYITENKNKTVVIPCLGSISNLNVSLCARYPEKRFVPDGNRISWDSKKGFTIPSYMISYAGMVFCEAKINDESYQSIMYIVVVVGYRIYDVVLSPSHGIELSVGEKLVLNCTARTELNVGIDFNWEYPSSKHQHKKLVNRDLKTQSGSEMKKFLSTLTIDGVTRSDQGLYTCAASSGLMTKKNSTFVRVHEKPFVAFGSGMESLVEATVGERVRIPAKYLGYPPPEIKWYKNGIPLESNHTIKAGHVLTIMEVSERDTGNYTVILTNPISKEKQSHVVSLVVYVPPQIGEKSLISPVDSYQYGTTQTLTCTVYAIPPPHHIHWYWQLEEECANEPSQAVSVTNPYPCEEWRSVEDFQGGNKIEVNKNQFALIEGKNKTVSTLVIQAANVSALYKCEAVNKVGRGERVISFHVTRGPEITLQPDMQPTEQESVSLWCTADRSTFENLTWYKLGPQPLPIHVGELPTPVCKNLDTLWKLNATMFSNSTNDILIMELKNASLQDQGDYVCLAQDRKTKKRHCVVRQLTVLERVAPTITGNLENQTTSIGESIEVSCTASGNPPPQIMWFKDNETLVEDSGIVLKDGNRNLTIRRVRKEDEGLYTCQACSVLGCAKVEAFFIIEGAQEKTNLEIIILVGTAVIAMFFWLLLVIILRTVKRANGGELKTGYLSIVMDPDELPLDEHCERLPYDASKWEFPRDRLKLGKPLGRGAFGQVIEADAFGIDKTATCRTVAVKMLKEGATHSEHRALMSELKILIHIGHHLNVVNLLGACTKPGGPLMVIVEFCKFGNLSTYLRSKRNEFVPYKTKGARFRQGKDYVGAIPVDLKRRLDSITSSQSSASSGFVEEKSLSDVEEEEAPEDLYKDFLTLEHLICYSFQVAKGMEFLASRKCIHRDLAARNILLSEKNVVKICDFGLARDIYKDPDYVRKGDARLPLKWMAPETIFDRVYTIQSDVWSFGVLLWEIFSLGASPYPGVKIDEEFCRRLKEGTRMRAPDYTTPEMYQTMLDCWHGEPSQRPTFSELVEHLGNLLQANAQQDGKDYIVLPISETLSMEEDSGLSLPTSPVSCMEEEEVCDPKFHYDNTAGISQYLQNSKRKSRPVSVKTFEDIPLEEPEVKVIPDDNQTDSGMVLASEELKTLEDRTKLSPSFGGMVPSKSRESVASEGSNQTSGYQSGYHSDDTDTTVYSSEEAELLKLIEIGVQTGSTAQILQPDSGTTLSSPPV
Sequence of Mast/stem cell growth factor receptor Kit (P10721 whole entry): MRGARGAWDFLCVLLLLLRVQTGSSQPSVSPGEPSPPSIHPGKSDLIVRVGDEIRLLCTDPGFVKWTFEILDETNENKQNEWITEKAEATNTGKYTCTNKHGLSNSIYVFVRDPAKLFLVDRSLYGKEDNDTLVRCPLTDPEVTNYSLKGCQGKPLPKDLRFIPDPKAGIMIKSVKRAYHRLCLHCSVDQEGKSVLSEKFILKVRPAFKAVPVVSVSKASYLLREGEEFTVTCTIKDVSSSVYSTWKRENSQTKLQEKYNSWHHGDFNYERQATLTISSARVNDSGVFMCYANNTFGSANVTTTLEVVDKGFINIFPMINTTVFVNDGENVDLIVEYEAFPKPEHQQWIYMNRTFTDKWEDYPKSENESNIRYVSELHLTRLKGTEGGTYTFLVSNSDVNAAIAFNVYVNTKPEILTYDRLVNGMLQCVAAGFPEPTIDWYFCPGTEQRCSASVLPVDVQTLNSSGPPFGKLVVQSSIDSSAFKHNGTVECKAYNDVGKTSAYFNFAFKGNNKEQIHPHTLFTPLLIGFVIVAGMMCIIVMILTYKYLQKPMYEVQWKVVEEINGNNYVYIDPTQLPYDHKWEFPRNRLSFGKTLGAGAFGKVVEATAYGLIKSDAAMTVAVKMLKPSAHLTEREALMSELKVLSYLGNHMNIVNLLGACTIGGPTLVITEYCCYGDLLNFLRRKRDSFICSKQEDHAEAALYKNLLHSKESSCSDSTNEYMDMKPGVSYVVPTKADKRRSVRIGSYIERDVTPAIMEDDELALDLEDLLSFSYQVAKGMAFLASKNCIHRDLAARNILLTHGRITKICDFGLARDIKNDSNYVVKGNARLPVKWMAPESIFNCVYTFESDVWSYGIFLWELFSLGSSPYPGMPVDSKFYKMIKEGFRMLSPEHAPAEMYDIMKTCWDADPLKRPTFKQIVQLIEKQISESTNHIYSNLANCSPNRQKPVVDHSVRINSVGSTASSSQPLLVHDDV
Sequence of Macrophage-stimulating protein receptor (Q04912 25-304 limits assumed): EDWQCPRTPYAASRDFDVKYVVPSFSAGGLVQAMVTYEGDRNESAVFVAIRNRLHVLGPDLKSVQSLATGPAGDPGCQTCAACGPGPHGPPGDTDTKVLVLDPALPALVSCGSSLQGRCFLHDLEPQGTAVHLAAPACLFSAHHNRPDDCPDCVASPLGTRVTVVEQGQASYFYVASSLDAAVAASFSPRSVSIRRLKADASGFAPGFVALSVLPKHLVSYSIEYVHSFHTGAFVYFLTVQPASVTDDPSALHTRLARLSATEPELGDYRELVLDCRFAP
Sequence of Macrophage-stimulating protein receptor (Q04912 310-1400 limits assumed): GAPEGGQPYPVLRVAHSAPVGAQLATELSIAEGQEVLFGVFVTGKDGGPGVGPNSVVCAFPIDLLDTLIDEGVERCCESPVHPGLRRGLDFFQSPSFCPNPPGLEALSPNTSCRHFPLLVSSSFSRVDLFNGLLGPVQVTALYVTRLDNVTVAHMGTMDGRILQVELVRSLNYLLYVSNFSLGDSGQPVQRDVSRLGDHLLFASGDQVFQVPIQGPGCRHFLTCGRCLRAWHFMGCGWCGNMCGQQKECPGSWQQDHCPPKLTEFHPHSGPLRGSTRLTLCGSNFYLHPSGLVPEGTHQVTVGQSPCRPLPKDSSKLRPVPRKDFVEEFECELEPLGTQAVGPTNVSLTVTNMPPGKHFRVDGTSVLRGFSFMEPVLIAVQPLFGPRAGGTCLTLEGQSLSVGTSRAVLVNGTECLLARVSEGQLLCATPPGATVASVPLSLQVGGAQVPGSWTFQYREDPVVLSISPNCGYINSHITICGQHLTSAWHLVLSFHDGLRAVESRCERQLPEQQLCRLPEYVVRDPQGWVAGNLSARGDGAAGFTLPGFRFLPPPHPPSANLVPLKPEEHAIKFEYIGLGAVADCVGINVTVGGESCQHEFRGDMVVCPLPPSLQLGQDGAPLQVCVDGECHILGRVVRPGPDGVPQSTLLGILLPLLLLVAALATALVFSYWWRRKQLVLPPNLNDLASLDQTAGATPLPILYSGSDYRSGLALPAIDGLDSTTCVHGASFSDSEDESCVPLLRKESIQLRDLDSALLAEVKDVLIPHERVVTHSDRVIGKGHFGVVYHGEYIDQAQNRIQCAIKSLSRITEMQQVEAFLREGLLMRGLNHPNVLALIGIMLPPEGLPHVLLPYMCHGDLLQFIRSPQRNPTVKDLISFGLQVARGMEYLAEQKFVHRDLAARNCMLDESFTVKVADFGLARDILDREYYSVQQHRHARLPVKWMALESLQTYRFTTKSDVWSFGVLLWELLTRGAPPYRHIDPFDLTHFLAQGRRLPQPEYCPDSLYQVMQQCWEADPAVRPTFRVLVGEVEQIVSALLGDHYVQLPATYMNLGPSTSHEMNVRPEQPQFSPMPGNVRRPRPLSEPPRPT
Sequence of Ephrin type-B receptor 4 (P54760 whole entry): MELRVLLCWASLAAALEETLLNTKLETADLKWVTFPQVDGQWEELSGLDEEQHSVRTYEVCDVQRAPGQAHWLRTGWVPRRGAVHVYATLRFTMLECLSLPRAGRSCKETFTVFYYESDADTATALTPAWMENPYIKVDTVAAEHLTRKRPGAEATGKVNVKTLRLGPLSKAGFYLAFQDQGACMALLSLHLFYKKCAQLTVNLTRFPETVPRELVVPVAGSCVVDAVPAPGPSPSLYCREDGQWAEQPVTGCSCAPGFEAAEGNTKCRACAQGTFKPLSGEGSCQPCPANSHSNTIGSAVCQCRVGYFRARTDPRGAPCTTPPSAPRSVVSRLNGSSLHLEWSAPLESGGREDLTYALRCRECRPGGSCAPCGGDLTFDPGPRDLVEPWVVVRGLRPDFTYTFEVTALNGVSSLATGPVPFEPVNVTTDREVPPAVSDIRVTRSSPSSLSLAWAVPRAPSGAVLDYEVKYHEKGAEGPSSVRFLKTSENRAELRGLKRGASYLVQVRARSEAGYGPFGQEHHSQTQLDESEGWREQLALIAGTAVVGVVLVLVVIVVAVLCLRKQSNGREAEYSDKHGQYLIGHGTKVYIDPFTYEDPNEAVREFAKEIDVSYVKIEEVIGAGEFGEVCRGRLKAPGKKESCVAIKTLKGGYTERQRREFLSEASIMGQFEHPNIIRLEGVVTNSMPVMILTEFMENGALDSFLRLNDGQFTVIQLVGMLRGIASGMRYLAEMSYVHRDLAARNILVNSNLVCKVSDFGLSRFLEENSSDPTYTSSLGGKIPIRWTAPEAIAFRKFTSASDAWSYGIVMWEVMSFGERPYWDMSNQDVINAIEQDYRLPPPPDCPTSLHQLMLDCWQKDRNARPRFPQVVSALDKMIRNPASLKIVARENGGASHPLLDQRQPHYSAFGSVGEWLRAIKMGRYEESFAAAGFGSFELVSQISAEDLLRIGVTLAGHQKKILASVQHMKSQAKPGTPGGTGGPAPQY
Description for Angiopoietin-1 receptor: Inhibition of Tie2 by cellular assay
Description for Insulin receptor: Inhibition of InsR by cellular assay
Description for cells: Inhibition of Bcr-abl by cellular assay

On to `CC#CC(=O)Nc1ccc2ncnc(Nc3cccc(Br)c3)c2c1`, for which the Activity is listed as 0.97 with MG-63; 1.024 in experiment [1]; 0.854 in the experiment with IMR-90; 1.135 with SNU1; 1.31 in [2]; 1.244 in the experiment with SNU-5.

`Cc1ccc(NC(=O)c2cccc(C(F)(F)F)c2)cc1N1Cc2cnc(N)nc2N(C)C1=O`: the pEC50 in [3] was under 5.70; in the experiment “cells”, 8.52; in experiment [4] it was 8.40; in experiment [5], under 5.70; in experiment [6], 6.63; in experiment [8] it was 7.10. The pEC50 is 8.40 in [9]; under 5.70 in [10]; under 5.70 in experiment [11]; 7.66 in experiment [12]; 6.70 at Angiopoietin-1 receptor; under 5.70 at Insulin receptor. Further, the negative logarithm of the EC50 (pEC50) at Ephrin type-A receptor 3 was 8.70; in [13], 7.89; on Ephrin type-B receptor 4, 8.40; in experiment [14] it was under 5.70; in experiment [15] it was 8.30; in experiment [16], under 5.70. The pEC50 was 8.22 in [17], 7.11 in [18] and under 5.70 in [19]. The same molecule showed a pIC50 in [7] of 7.89.

Take `CCN(CC)CCCCNc1ncc2cc(-c3cc(OC)cc(OC)c3)c(NC(=O)NC(C)(C)C)nc2n1` [PD-173074]: the figures for the pIC50 in [20] and in experiment [21] were under 4.30 and 4.72, respectively. Further, the pEC50 in [22] was 6.60.

Values taken from ChEMBL document CHEMBL1149823, “Identification of genotype-correlated sensitivity to selective kinase inhibitors by using high-throughput tumor cell line profiling” (Proc Natl Acad Sci U S A, 2007).
